Tests used:
[1] = system: 1.12.2 (5'-FAM) (DNA, aptamer) GATCGGGTGTGGGTGGCGTAAAGGGAGCATCGGACA; test: microscale thermophoresis (raw fluorescence, quenching); details: 120 mM NaCl, 5 mM KCl, 10 mM CaCl2; 10 mM HEPES, pH 7.0, 25 °C; raw fluorescence quenching analysed, may have skewed KD
[2] = system: 1.12.2 (DNA, aptamer) GATCGGGTGTGGGTGGCGTAAAGGGAGCATCGGACA; test: SYBR Green I displacement; details: 120 mM NaCl, 5 mM KCl, 10 mM CaCl2; 10 mM HEPES, pH 7.0; OTA 0.2 to 70 nM
[3] = system: H8 (5'-FAM) (DNA, aptamer) GGGAGGACGAAGCGGAACTGGGTGTGGGGTGATCAAGGGAGTAGACTACAGAAGACACGCCCGACA; test: microscale thermophoresis; details: 137 mM NaCl, 2.7 mM KCl, 1 mM MgCl2; 10 mM Na2HPO4, 2 mM KH2PO4, pH 7.4, 25 °C
[4] = system: 1.12.2 (DNA, aptamer) GATCGGGTGTGGGTGGCGTAAAGGGAGCATCGGACA; test: gold nanoparticle aggregation; details: 0.5 M NaCl added last; in water; OTA 0.2 to 70 nM
[5] = system: A08 (DNA, aptamer) AGCCTCGTCTGTTCTCCCGGCAGTGTGGGCGAATCTATGCGTACCGTTCGATATCGTGGGGAAGACAAGCAGACGT; test: SYBR Green I displacement; details: 137 mM NaCl, 2.7 mM KCl; 10 mM Na2HPO4, 2 mM KH2PO4, pH 7.4; OTA 0.2 to 70 nM
[6] = system: A08 (5'-FAM) (DNA, aptamer) AGCCTCGTCTGTTCTCCCGGCAGTGTGGGCGAATCTATGCGTACCGTTCGATATCGTGGGGAAGACAAGCAGACGT; test: microscale thermophoresis; details: 137 mM NaCl, 2.7 mM KCl; 10 mM Na2HPO4, 2 mM KH2PO4, pH 7.4, 25 °C
[7] = system: H12 (5'-FAM) (DNA, aptamer) GGGAGGACGAAGCGGAACCGGGTGTGGGTGCCTTGATCCAGGGAGTCTCAGAAGACACGCCCGACA; test: microscale thermophoresis; details: 137 mM NaCl, 2.7 mM KCl, 1 mM MgCl2; 10 mM Na2HPO4, 2 mM KH2PO4, pH 7.4, 25 °C
[8] = system: A08min (DNA, aptamer) GGCAGTGTGGGCGAATCTATGCGTACCGTTCGATATCGTG; test: SYBR Green I displacement; details: 137 mM NaCl, 2.7 mM KCl; 10 mM Na2HPO4, 2 mM KH2PO4, pH 7.4; OTA 0.2 to 70 nM
[9] = system: A08 (DNA, aptamer) AGCCTCGTCTGTTCTCCCGGCAGTGTGGGCGAATCTATGCGTACCGTTCGATATCGTGGGGAAGACAAGCAGACGT; test: gold nanoparticle aggregation; details: 0.5 M NaCl added last; in water; OTA 0.2 to 70 nM
[10] = system: A08min (DNA, aptamer) GGCAGTGTGGGCGAATCTATGCGTACCGTTCGATATCGTG; test: gold nanoparticle aggregation; details: 0.5 M NaCl added last; in water; OTA 0.2 to 70 nM
[11] = system: A08min (5'-FAM) (DNA, aptamer) GGCAGTGTGGGCGAATCTATGCGTACCGTTCGATATCGTG; test: microscale thermophoresis; details: 137 mM NaCl, 2.7 mM KCl; 10 mM Na2HPO4, 2 mM KH2PO4, pH 7.4, 25 °C

Question: For `C[C@@H]1Cc2c(Cl)cc(C(=O)N[C@@H](Cc3ccccc3)C(=O)O)c(O)c2C(=O)O1`, which KD [1] is on record?
Answer: 524.8 ± 147.8 nM

Question: What about the binding [2] of the same compound?
Answer: yes

Question: And the KD [3]?
Answer: 416.1 ± 119.0 nM

Question: And the binding [4]?
Answer: yes

Question: What about the binding [5] of the same compound?
Answer: yes

Question: What about the KD [6] of the same compound?
Answer: 232.6 ± 80.6 nM

Question: And the KD [7]?
Answer: 629.5 ± 79.7 nM

Question: And the binding [8]?
Answer: yes

Question: And the binding [9]?
Answer: yes

Question: And the binding [10]?
Answer: yes

Question: What about the KD [11] of the same compound?
Answer: 96.5 ± 33.3 nM

— publication PMC5127132 (2016)
